In brackets after ≈: the same amount, converted by molar mass. Read-outs that look alike come from different tables or passages of the source.
How the values were obtained:
[1] = system: Candida albicans isolates; assay: MIC/MFC microtiter broth dilution; assay type: cell-based; conditions: NB-002 as μg CPC/ml
[2] = system: Paecilomyces spp.; assay: MIC against rare onychomycosis pathogens (CLSI M 38-A); assay type: cell-based; conditions: 4 isolates; NB-002 as μg CPC/ml
Source text: (§1) Methods: All fungi were from patients, many of which had onychomycosis or another tinea infection.

[3] = system: Aspergillus spp.; assay: as above; assay type: cell-based; conditions: 5 isolates; NB-002 as μg CPC/ml
Source text: as §1

[4] = system: Epicoccum nigrum; assay: as above; assay type: cell-based; conditions: 3 isolates; NB-002 as μg CPC/ml
Source text: as §1

[5] = system: Trichophyton soundanense; assay: as above; assay type: cell-based; conditions: 3 isolates; NB-002 as μg CPC/ml
Source text: as §1

[6] = system: Scopulariopsis spp.; assay: as above; assay type: cell-based; conditions: 5 isolates; NB-002 as μg CPC/ml
Source text: as §1

[7] = system: Trichophyton verrucosum; assay: as above; assay type: cell-based; conditions: 3 isolates; NB-002 as μg CPC/ml
Source text: as §1

[8] = system: Scedosporium spp.; assay: as above; assay type: cell-based; conditions: 5 isolates; NB-002 as μg CPC/ml
Source text: as §1

[9] = system: Chaetomium spp.; assay: as above; assay type: cell-based; conditions: 3 isolates; NB-002 as μg CPC/ml
Source text: as §1

[10] = system: Scytalydium spp.; assay: as above; assay type: cell-based; conditions: 10 isolates; NB-002 as μg CPC/ml
Source text: as §1

[11] = system: Phoma sp.; assay: as above; assay type: cell-based; conditions: 3 isolates; NB-002 as μg CPC/ml
Source text: as §1

[12] = system: Alternaria spp.; assay: as above; assay type: cell-based; conditions: 3 isolates; NB-002 as μg CPC/ml
Source text: as §1

[13] = system: Curvularia spp.; assay: as above; assay type: cell-based; conditions: 3 isolates; NB-002 as μg CPC/ml
Source text: as §1

[14] = system: Epidermophyton floccosum; assay: microbe, parasite or virus in culture; assay type: cell-based; conditions: read-out: Final MIC
Experimental: (§2) Phenotypically resistant isolates were tested for MICs and compared to parental MICs.

[15] = system: Trichophyton mentagrophytes; assay: microbe, parasite or virus in culture; assay type: cell-based
Experimental: as §2

[16] = system: Trichophyton rubrum; assay: microbe, parasite or virus in culture; assay type: cell-based
Experimental: as §2

[17] = system: Epidermophyton floccosum; assay: MIC/MFC microtiter broth dilution; assay type: cell-based; conditions: n = 6 isolates; NB-002 as μg CPC/ml
[18] = system: Acremonium spp.; assay: MIC against rare onychomycosis pathogens (CLSI M 38-A); assay type: cell-based; conditions: 5 isolates; NB-002 as μg CPC/ml
Source text: as §1

[19] = system: Fusarium spp.; assay: as above; assay type: cell-based; conditions: 10 isolates; NB-002 as μg CPC/ml
Source text: as §1

[20] = system: T. rubrum; assay: Time-kill experiments on mycelia and microconidia; assay type: cell-based, Trichophyton rubrum
Experimental: Time-kill experiments. […] Part of the conidial suspension was pelleted and resuspended in RPMI 1640 medium and grown for 16-18 hours overnight at room temperature to allow germination of microconidia. After germination, the hyphae were collected by centrifugation and resuspended in distilled water. […] Colony-forming units were counted after four days of incubation at 35° C.

[21] = system: Trichophyton mentagrophytes; assay: MIC/MFC microtiter broth dilution; assay type: cell-based; conditions: for MIC90 / MIC50: Trichophyton mentagrophytes; for MFC50 / MFC90 / MIC range: n = 14 isolates, NB-002 as μg CPC/ml
[22] = system: Microsporum canis; assay: MIC/MFC microtiter broth dilution; assay type: cell-based; conditions: M. canis n = 10 (tinea capitis species)
[23] = system: M. audouinii; assay: MIC against species that cause tinea capitis; assay type: cell-based; conditions: M. audouinii n = 10
[24] = system: T. violaceum; assay: MIC against species that cause tinea capitis; assay type: cell-based; conditions: T. violaceum n = 10
[25] = system: Trichophyton tonsurans; assay: MIC/MFC microtiter broth dilution; assay type: cell-based
[26] = system: Trichophyton rubrum; assay type: cell-based; conditions: 10^7 conidia plated; NBD031-b; drug plate 0.125 μg/ml
[27] = cited from earlier work
[28] = Azole-Resistant isolates (n = 24)
[29] = Azole-Susceptible isolates (n = 10)
[30] = read-out: Final MIC, isolate NBD012-a, selected on NB-002 drug plate 8 μg/ml
[31] = read-out: Final MIC, isolate NBD012-b, selected on NB-002 drug plate 16 μg/ml
[32] = read-out: Final MIC, isolate NBD012-c, selected on NB-002 drug plate 32 μg/ml
[33] = read-out: Final MIC, isolate NBD012-d, selected on terbinafine drug plate 0.0625 μg/ml
[34] = read-out: Final MIC, isolate NBD013-a, selected on itraconazole drug plate […]
[35] = read-out: Final MIC, isolate NBD014-a, selected on NB-002 drug plate 32 μg/ml
[36] = read-out: Final MIC, isolate NBD031-a, selected on NB-002 drug plate 16 μg/ml
[37] = read-out: Final MIC, isolate NBD031-b, selected on itraconazole drug plate 0.125 μg/ml
[38] = read-out: Final MIC, isolate NBD031-c, selected on terbinafine drug plate 0.125 μg/ml
[39] = Candida albicans, Azole-Resistant isolates (n = 24), read-out: MIC90
[40] = Candida albicans, Azole-Susceptible isolates (n = 10), read-out: MIC90
[41] = T. tonsurans n = 10 (tinea capitis species)

SMILES	MFC90 [1, 28] [µg/mL]	MFC90 [1, 29] [µg/mL]	MIC range [3] [µg/mL]	MIC range [4] [µg/mL]	MIC range [5] [µg/mL]	MIC range [7]	MIC range [9] [µg/mL]	MIC range [11] [µg/mL]	MIC range [12] [µg/mL]	MIC range [13] [µg/mL]	MIC90 [1, 39] [µg/mL]	MIC90 [1, 40] [µg/mL]	MIC range [17] [µg/mL]	MIC90 [21] [µg/mL]	MIC50 ([21]; read-out: MIC50) [µg/mL]	MFC50 [21] [µg/mL]	MFC90 [21] [µg/mL]	MIC range [21] [µg/mL]	also measured
C[C@@H]1[C@H](O)[C@@H](C)/C=C/C=C/C=C/C=C/C=C/C=C/C=C/[C@H](O[C@@H]2O[C@H](C)[C@@H](O)[C@H](N)[C@@H]2O)C[C@@H]2O[C@](O)(C[C@@H](O)C[C@@H](O)[C@H](O)CC[C@@H](O)C[C@@H](O)CC(=O)O[C@H]1C)C[C@H](O)[C@H]2C(=O)O [Amphotericin B]	4 (≈ 4.33 µM)	2 (≈ 2.16 µM)	1 to 4	0.25 to 1	0.125 to 0.25	0.125 to 0.25 µg/mL	0.5 to 4	0.5 to 2	1 (≈ 1.08 µM)	0.125 to 1									MIC90 [1, 28]: 2 µg/mL (≈ 2.16 µM); MIC90 [1, 29]: 2 µg/mL (≈ 2.16 µM); MIC range [2]: >16 µg/mL; MIC range [6]: >16 µg/mL; MIC range [8]: >16 µg/mL; MIC range [10]: 0.5 to 1 µg/mL
Cc1cc(C2CCCCC2)n(O)c(=O)c1 [Ciclopirox]	>32	>32	0.5 to 2	0.125 to 2	0.125 to 0.25	<=0.06-0.125 ug/ml	0.25 to 0.5	0.5 to 1	0.25 to 0.5	0.5 to 1	1 (≈ 4.82 µM)	4 (≈ 19.3 µM)	0.5 (≈ 2.41 µM)	1 (≈ 4.82 µM)	0.5 (≈ 2.41 µM)	1 (≈ 4.82 µM)	16 (≈ 77.2 µM)	0.125 to 1	MIC [14]: 4 µg/mL (≈ 19.3 µM); MIC [15, 30]: 4 µg/mL (≈ 19.3 µM); MIC [15, 31]: 4 µg/mL (≈ 19.3 µM); MIC [15, 32]: 4 µg/mL (≈ 19.3 µM); MIC [15, 33]: 4 µg/mL (≈ 19.3 µM); MIC [15, 34]: 4 µg/mL (≈ 19.3 µM); MIC [15, 35]: 4 µg/mL (≈ 19.3 µM); MIC [16, 36]: 4 µg/mL (≈ 19.3 µM); MIC [16, 37]: 4 µg/mL (≈ 19.3 µM); MIC [16, 38]: 4 µg/mL (≈ 19.3 µM); MIC range [18]: 0.5 to 4 µg/mL; MIC range [2]: 8 to 16 µg/mL; MIC range [19]: 1 to 16 µg/mL; MIC range [6]: 0.5 to 2 µg/mL; MIC range [8]: 0.5 to 8 µg/mL; MIC range [10]: 0.5 to 1 µg/mL; reduction in colony counts ([20]; 16×MIC or 8 μg/ml, after 8 hours, nongrowing mycelia (not microconidia), isolate NBD032): 3 log; activity against the conidial form ([20]; 16×MIC, up to 24 hours, nongrowth conditions): no activity
Clc1ccc(COC(Cn2ccnc2)c2ccc(Cl)cc2Cl)cc1 (stereo not shown) [Econazole]													0.0625 to 0.125	0.25 (≈ 0.655 µM)	0.25 (≈ 0.655 µM)	8 (≈ 21 µM)	>16	0.125 to 0.25	MFC Range [17]: 0.0625 to 4 µg/mL
OC(Cn1cncn1)(Cn1cncn1)c1ccc(F)cc1F [Fluconazole]	>64	>64									> 64	0.5 (≈ 1.63 µM)							
COC1=CC(=O)C[C@@H](C)[C@]12Oc1c(Cl)c(OC)cc(OC)c1C2=O [Griseofulvin]													1 to 2	2 (≈ 5.67 µM)	0.5 (≈ 1.42 µM)	8 (≈ 22.7 µM)	>16	0.25 to 4	MFC Range [17]: 1 to 16 µg/mL; MIC50 [22]: 0.25 µg/mL (≈ 0.709 µM); MIC90 [22]: 0.5 µg/mL (≈ 1.42 µM); MIC range ([22]; in µg/mL): 0.25-0.5; MIC50 [23]: 0.25 µg/mL (≈ 0.709 µM); MIC90 [23]: 1 µg/mL (≈ 2.83 µM); MIC range ([23]; in µg/mL): 0.12-1.0; MIC50 [24]: 4 µg/mL (≈ 11.3 µM); MIC90 [24]: 4 µg/mL (≈ 11.3 µM); MIC range ([24]; in µg/mL): 1.0-8.0; MIC range ([25]; T. tonsurans (n = 6), NB-002 as μg CPC/ml): 0.5 to 1 µg/mL; MIC50 [25, 41]: 0.5 µg/mL (≈ 1.42 µM); MIC90 [25, 41]: 1 µg/mL (≈ 2.83 µM); MIC range ([25]; T. tonsurans n = 10 (tinea capitis species), in µg/mL): 0.5-1.0
CCC(C)n1ncn(-c2ccc(N3CCN(c4ccc(OCC5COC(Cn6cncn6)(c6ccc(Cl)cc6Cl)O5)cc4)CC3)cc2)c1=O (stereo not shown) [Itraconazole]	>16	>16	0.06 to 1	0.25 to 0.5	0.125 to 0.25	0.06 to 0.125 µg/mL	0.5 to 1	0.06 to 0.5	0.25 to 0.5	0.125 to 0.25	> 16	0.5 (≈ 0.709 µM)	0.125 to 0.5	0.5 (≈ 0.709 µM)		8 (≈ 11.3 µM)	>16	0.0625 to 0.5	MIC [14]: 0.25 µg/mL (≈ 0.354 µM); MIC [15, 30]: 0.0625 µg/mL (≈ 0.0886 µM); MIC [15, 31]: 0.0625 µg/mL (≈ 0.0886 µM); MIC [15, 32]: 0.0625 µg/mL (≈ 0.0886 µM); MIC [15, 33]: 0.0625 µg/mL (≈ 0.0886 µM); MIC [15, 34]: 0.125 µg/mL (≈ 0.177 µM); MIC [15, 35]: 0.0625 µg/mL (≈ 0.0886 µM); MIC [16, 36]: 0.0625 µg/mL (≈ 0.0886 µM); MIC [16, 37]: 0.0625 µg/mL (≈ 0.0886 µM); MIC [16, 38]: 0.0313 µg/mL (≈ 0.0444 µM); # CFU recovered [26]: 2; MIC range [18]: >8 µg/mL; reduction of colony counts / activity on mycelia and microconidia ([20]; 16×MIC, up to 24 hours, nongrowth conditions (FIG. 10)): no activity; MIC50 [21]: 0.125 µg/mL (≈ 0.177 µM)
CN(C/C=C/C#CC(C)(C)C)Cc1cccc2ccccc12.Cl [Terbinafine hydrochloride]																			solubility in ethanol ([27]; in words): soluble; solubility in methanol and dichloromethane ([27]; in words): freely soluble; solubility in water ([27]; in words): slightly soluble
Clc1ccc(COC(Cn2ccnc2)c2ccc(Cl)cc2Cl)c(Cl)c1 (stereo not shown) [miconazole]																			Ethanol Solubility [27]: 94 mg/mL; Log P [27]: 6.1; Soybean Solubility [27]: 74 mg/mL; pKa [27]: 6.67

Reference: US20090269394A1, “METHODS AND COMPOSITIONS FOR TREATING ONCHOMYCOSIS” (priority 2008, published 2009)
